This note sets out measurements from patent publication US20090191580A1, “METHOD OF SCREENING USING c-MET, A NOVEL SUBSTRATE FOR GAMMA-SECRETASE” (Eisai R & D Management Co., Ltd., priority 2007, published 2009).

For this experiment, the system named is cleavage of c-Met by γ-secretase. Put plainly: Analysis of c-Met processing in c-Met-transfected 293/EBNA-1 cell strain (Western blotting with anti-HA antibody). Type of experiment: cell-based, rat c-Met in HEK293 (293/EBNA-1) cells. Also noted: dose or concentration left out as unconfirmed. To be noted: Compound E added to culture broth, cultured another day, rat c-Met-HA transfected 293/EBNA-1 (HEK293) cells. The procedure:
Whether or not c-Met is a substrate for γ-secretase was evaluated using HEK293 cells expressing a gene encoding c-Met with an HA tag added to its C-terminus, in the presence of a γ-secretase inhibitor. As the γ-secretase inhibitor, (2S)-2-{[(3,5-difluorophenyl)acetyl]amino}-N-[(3S)-1-methyl-2-oxo-5-phenyl-2,3-dihydro-1H-1,4-benzodiazepin-3-yl]propanamide (hereinafter, sometimes referred to as “Compound E”) (Alexis Biochemicals) was used.
293/EBNA-1 cell strain (Invitrogen) was cultured in 10% FBS (Hyclone)/DMEM (Invitrogen) under 5% CO2 at 37° C., followed by transfection thereinto of the gene encoding rat c-Met with an HA tag added to its C-terminus using Lipofectamine 2000 (Invitrogen). After one day culture under the same conditions, […] Compound E (Alexis Biochemicals) was added to the culture broth. Cells were cultured for another day under the same conditions. Then, the transfected HEK293 cells were collected with PBS (Sigma) and sonicated with a sonicator (Taitec VP-5S) to disrupt cells. Then, the quantity of protein was determined with Protein Assay Kit (BioRad). Samples (2 μl each) were taken from proteins obtained from Compound E-added cells and Compound E-not added cells, respectively, and subjected to SDS-PAGE, followed by Western blotting with an anti-HA antibody (Roche) (final concentration: 0.2 μg/ml). […]

Regarding `C[C@H](NC(=O)Cc1cc(F)cc(F)c1)C(=O)N[C@H]1N=C(c2ccccc2)c2ccccc2N(C)C1=O` [Compound E, (2S)-2-{[(3,5-difluorophenyl)acetyl]amino}-N-[(3S)-1-methyl-2-oxo-5-phenyl-2,3-dihydro-1H-1,4-benzodiazepin-3-yl]propanamide], the “c-Met undegraded product (CTF band around 50 kDa) on Western blot” value is on record as “a band around 50 kDa (CTF: C terminal fragment) was accumulated specifically as a c-Met undegraded product”.
